Test results: patent publication US20100160454A1, “ANTIMICROBIAL AGENTS, COMPOSITIONS AND PRODUCTS CONTAINING THE SAME, AND METHODS OF USING THE COMPOSITIONS AND PRODUCTS” (Eastman Chemical Company, priority 2008, published 2010)

Key:
Experiment in all cases: Microbiological challenge testing in BPW broth, graded subculture counts
Format in all cases: cell-based
Aeromonas sp. Wild type = test system: Aeromonas sp. Wild type
Outline: (§1)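 Challenge substrates of BPW plus 1% dextrose containing the test material (w/v) or broth alone were inoculated to 10^5–10^6 CFU/mL. Bacteria had been precultured in dextrose TSB at 35 °C for at least 96 h. CFU/mL came from plate count × dilution factor on PCA after ≥48 h at 35 °C.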

[1] = test system: Bacillus subtilis Wild type
Outline: as §1

[2] = test system: Burkholderia cepacia Wild type; details: B. cepacia
Outline: as §1

[3] = test system: Streptococcus mutans ATCC 35668
Outline: as §1

[4] = test system: Staphylococcus aureus ATCC 25923; details: S. aureus
Outline: as §1

[5] = test system: Staphylococcus epidermidis ATCC 12228
Outline: as §1

SMILES: CC1(C)C(O)C(C)(C)C1O (stereo not drawn) [TMCBD, 2,2,4,4-tetramethyl-1,3-cyclobutanediol]
- Aeromonas sp growth grade, 3 day (Aeromonas sp. Wild type; 0.5% weight/volume): 5 (More than 10,000 colonies estimated (thus more than 100,000 CFU/mL))
- Aeromonas sp growth grade, 14 day (Aeromonas sp. Wild type; 0.5% weight/volume): 4 (1000 to 10,000 colonies countable (thus 10,000 CFU/mL to 100,000 CFU/mL))
- Aeromonas sp growth grade, 30 day (Aeromonas sp. Wild type; 0.5% weight/volume): 4 (1000 to 10,000 colonies countable (thus 10,000 CFU/mL to 100,000 CFU/mL))
- Aeromonas sp growth grade, 3 day (Aeromonas sp. Wild type; 1.25% weight/volume): 4 (1000 to 10,000 colonies countable (thus 10,000 CFU/mL to 100,000 CFU/mL))
- Aeromonas sp growth grade, 14 day (Aeromonas sp. Wild type; 1.25% weight/volume): 4 (1000 to 10,000 colonies countable (thus 10,000 CFU/mL to 100,000 CFU/mL))
- Aeromonas sp growth grade, 30 day (Aeromonas sp. Wild type; 1.25% weight/volume): 4 (1000 to 10,000 colonies countable (thus 10,000 CFU/mL to 100,000 CFU/mL))
- Aeromonas sp growth grade, 3 day (Aeromonas sp. Wild type; 2.5% weight/volume): 4 (1000 to 10,000 colonies countable (thus 10,000 CFU/mL to 100,000 CFU/mL))
- Aeromonas sp growth grade, 14 day (Aeromonas sp. Wild type; 2.5% weight/volume): 2 (52 to 100 colonies counted (thus 520 to 1000 CFU/mL))
- Aeromonas sp growth grade, 30 day (Aeromonas sp. Wild type; 2.5% weight/volume): 3 (100 to 1000 colonies (thus 1000 to 10,000 CFU/mL))
- Aeromonas sp growth grade, 3 day (Aeromonas sp. Wild type; 5.0% weight/volume): 2 (52 to 100 colonies counted (thus 520 to 1000 CFU/mL))
- Aeromonas sp growth grade, 14 day (Aeromonas sp. Wild type; 5.0% weight/volume): 0
- Aeromonas sp growth grade, 30 day (Aeromonas sp. Wild type; 5.0% weight/volume): 0
- B. subtillis growth grade, 3 day ([1]; 0.5% weight/volume): 4 (1000 to 10,000 colonies countable (thus 10,000 CFU/mL to 100,000 CFU/mL))
- B. subtillis growth grade, 14 day ([1]; 0.5% weight/volume): 4 (1000 to 10,000 colonies countable (thus 10,000 CFU/mL to 100,000 CFU/mL))
- B. subtillis growth grade, 30 day ([1]; 0.5% weight/volume): 4 (1000 to 10,000 colonies countable (thus 10,000 CFU/mL to 100,000 CFU/mL))
- B. subtillis growth grade, 3 day ([1]; 1.25% weight/volume): 4 (1000 to 10,000 colonies countable (thus 10,000 CFU/mL to 100,000 CFU/mL))
- B. subtillis growth grade, 14 day ([1]; 1.25% weight/volume): 4 (1000 to 10,000 colonies countable (thus 10,000 CFU/mL to 100,000 CFU/mL))
- B. subtillis growth grade, 30 day ([1]; 1.25% weight/volume): 4 (1000 to 10,000 colonies countable (thus 10,000 CFU/mL to 100,000 CFU/mL))
- B. subtillis growth grade, 3 day ([1]; 2.5% weight/volume): 4 (1000 to 10,000 colonies countable (thus 10,000 CFU/mL to 100,000 CFU/mL))
- B. subtillis growth grade, 14 day ([1]; 2.5% weight/volume): 4 (1000 to 10,000 colonies countable (thus 10,000 CFU/mL to 100,000 CFU/mL))
- B. subtillis growth grade, 30 day ([1]; 2.5% weight/volume): 4 (1000 to 10,000 colonies countable (thus 10,000 CFU/mL to 100,000 CFU/mL))
- B. subtillis growth grade, 3 day ([1]; 5.0% weight/volume): 4 (1000 to 10,000 colonies countable (thus 10,000 CFU/mL to 100,000 CFU/mL))
- B. subtillis growth grade, 14 day ([1]; 5.0% weight/volume): 2 (52 to 100 colonies counted (thus 520 to 1000 CFU/mL))
- B. subtillis growth grade, 30 day ([1]; 5.0% weight/volume): 0
- Grade ([2]; 0.5% (wt/vol), 3 day): 4 (1000 to 10,000 colonies countable (thus 10,000 CFU/mL to 100,000 CFU/mL))
- Grade ([2]; 0.5% (wt/vol), 14 day): 4 (1000 to 10,000 colonies countable (thus 10,000 CFU/mL to 100,000 CFU/mL))
- Grade ([2]; 0.5% (wt/vol), 30 day): 4 (1000 to 10,000 colonies countable (thus 10,000 CFU/mL to 100,000 CFU/mL))
- Grade ([2]; 1.25% (wt/vol), 3 day): 3 (100 to 1000 colonies (thus 1000 to 10,000 CFU/mL))
- Grade ([2]; 1.25% (wt/vol), 14 day): 2 (52 to 100 colonies counted (thus 520 to 1000 CFU/mL))
- Grade ([2]; 1.25% (wt/vol), 30 day): 4 (1000 to 10,000 colonies countable (thus 10,000 CFU/mL to 100,000 CFU/mL))
- Grade ([2]; 2.5% (wt/vol), 3 day): 1 (0 to 51 colonies counted (thus 10 to 510 CFU/mL based on 0.1-mL sample))
- Grade ([2]; 2.5% (wt/vol), 14 day): 0
- Grade ([2]; 2.5% (wt/vol), 30 day): 0
- Grade ([2]; 5.0% (wt/vol), 3 day): 1 (0 to 51 colonies counted (thus 10 to 510 CFU/mL based on 0.1-mL sample))
- Grade ([2]; 5.0% (wt/vol), 14 day): 0
- Grade ([2]; 5.0% (wt/vol), 30 day): 0
- S. mutans growth grade, 3 day ([3]; 0.5% weight/volume): 4 (1000 to 10,000 colonies countable (thus 10,000 CFU/mL to 100,000 CFU/mL))
- S. mutans growth grade, 13 day ([3]; 0.5% weight/volume): 4 (1000 to 10,000 colonies countable (thus 10,000 CFU/mL to 100,000 CFU/mL))
- S. mutans growth grade, 30 day ([3]; 0.5% weight/volume): 4 (1000 to 10,000 colonies countable (thus 10,000 CFU/mL to 100,000 CFU/mL))
- S. mutans growth grade, 3 day ([3]; 1.25% weight/volume): 4 (1000 to 10,000 colonies countable (thus 10,000 CFU/mL to 100,000 CFU/mL))
- S. mutans growth grade, 13 day ([3]; 1.25% weight/volume): 4 (1000 to 10,000 colonies countable (thus 10,000 CFU/mL to 100,000 CFU/mL))
- S. mutans growth grade, 30 day ([3]; 1.25% weight/volume): 4 (1000 to 10,000 colonies countable (thus 10,000 CFU/mL to 100,000 CFU/mL))
- S. mutans growth grade, 3 day ([3]; 2.5% weight/volume): 3 (100 to 1000 colonies (thus 1000 to 10,000 CFU/mL))
- S. mutans growth grade, 13 day ([3]; 2.5% weight/volume): 1 (0 to 51 colonies counted (thus 10 to 510 CFU/mL based on 0.1-mL sample))
- S. mutans growth grade, 30 day ([3]; 2.5% weight/volume): 0
- S. mutans growth grade, 3 day ([3]; 5.0% weight/volume): 0
- S. mutans growth grade, 13 day ([3]; 5.0% weight/volume): 0
- S. mutans growth grade, 30 day ([3]; 5.0% weight/volume): 0
- Grade ([4]; 0.5% (wt/vol), 3 day): 4 (1000 to 10,000 colonies countable (thus 10,000 CFU/mL to 100,000 CFU/mL))
- Grade ([4]; 0.5% (wt/vol), 14 day): 4 (1000 to 10,000 colonies countable (thus 10,000 CFU/mL to 100,000 CFU/mL))
- Grade ([4]; 0.5% (wt/vol), 30 day): 4 (1000 to 10,000 colonies countable (thus 10,000 CFU/mL to 100,000 CFU/mL))
- Grade ([4]; 1.25% (wt/vol), 3 day): 4 (1000 to 10,000 colonies countable (thus 10,000 CFU/mL to 100,000 CFU/mL))
- Grade ([4]; 1.25% (wt/vol), 14 day): 4 (1000 to 10,000 colonies countable (thus 10,000 CFU/mL to 100,000 CFU/mL))
- Grade ([4]; 1.25% (wt/vol), 30 day): 4 (1000 to 10,000 colonies countable (thus 10,000 CFU/mL to 100,000 CFU/mL))
- Grade ([4]; 2.5% (wt/vol), 3 day): 2 (52 to 100 colonies counted (thus 520 to 1000 CFU/mL))
- Grade ([4]; 2.5% (wt/vol), 14 day): 1 (0 to 51 colonies counted (thus 10 to 510 CFU/mL based on 0.1-mL sample))
- Grade ([4]; 2.5% (wt/vol), 30 day): 1 (0 to 51 colonies counted (thus 10 to 510 CFU/mL based on 0.1-mL sample))
- Grade ([4]; 5.0% (wt/vol), 3 day): 0
- Grade ([4]; 5.0% (wt/vol), 14 day): 0
- Grade ([4]; 5.0% (wt/vol), 30 day): 0
- S. epidermidis growth grade, 3 day ([5]; 0.5% weight/volume): 4 (1000 to 10,000 colonies countable (thus 10,000 CFU/mL to 100,000 CFU/mL))
- S. epidermidis growth grade, 13 day ([5]; 0.5% weight/volume): 4 (1000 to 10,000 colonies countable (thus 10,000 CFU/mL to 100,000 CFU/mL))
- S. epidermidis growth grade, 30 day ([5]; 0.5% weight/volume): 4 (1000 to 10,000 colonies countable (thus 10,000 CFU/mL to 100,000 CFU/mL))
- S. epidermidis growth grade, 3 day ([5]; 1.25% weight/volume): 2 (52 to 100 colonies counted (thus 520 to 1000 CFU/mL))
- S. epidermidis growth grade, 13 day ([5]; 1.25% weight/volume): 3 (100 to 1000 colonies (thus 1000 to 10,000 CFU/mL))
- S. epidermidis growth grade, 30 day ([5]; 1.25% weight/volume): 4 (1000 to 10,000 colonies countable (thus 10,000 CFU/mL to 100,000 CFU/mL))
- S. epidermidis growth grade, 3 day ([5]; 2.5% weight/volume): 2 (52 to 100 colonies counted (thus 520 to 1000 CFU/mL))
- S. epidermidis growth grade, 13 day ([5]; 2.5% weight/volume): 2 (52 to 100 colonies counted (thus 520 to 1000 CFU/mL))
- S. epidermidis growth grade, 30 day ([5]; 2.5% weight/volume): 2 (52 to 100 colonies counted (thus 520 to 1000 CFU/mL))
- S. epidermidis growth grade, 3 day ([5]; 5.0% weight/volume): 1 (0 to 51 colonies counted (thus 10 to 510 CFU/mL based on 0.1-mL sample))
- S. epidermidis growth grade, 13 day ([5]; 5.0% weight/volume): 0
- S. epidermidis growth grade, 30 day ([5]; 5.0% weight/volume): 0
